Results reported in patent US6638970B2, “Substituted alkylene diamine compounds” (CV Therapeutics, Inc., priority 2000, dated 2003).

What was measured:
[1] = Metabolic stability in human liver S-9 fractions; format: in vitro ADME; conditions: for Liver S-9 stability factor: % parent remaining after 30 min in human liver S-9 divided by average % of ranolazine remaining (57%)
Description: Metabolic Stability: As a measure of metabolic stability the compounds of this invention were incubated with human liver S-9 microsomal fractions. After, 30 minutes at 37 C, the amount of parent drug remaining was determined using LC-mass spec. The response factors for each compound was determined by establishing a standard curve and using an internal standard during the analysis of the samples. An average of five experiments for percentage of ranolazine remaining at the 30 minute time point is 57%. The compounds of this invention were assayed as described in the protocol below and the percentage of parent remaining was divided by the average % of ranolazine remaining (57%) affording a metabolic stability factor. A compound with a stability number greater than 1.2 has a better stability than ranolazine in the liver S-9 assay. A compound with a stability number between 1.2 and 0.8 has an equivalent stability in the liver S-9 assay.
The purpose of this experiment is to compare the percentages remaining for compounds of this invention with the percentage remaining for ranolazine after 30 minutes of incubation with human liver S9 fractions.
The following reagents were used; Potassium phosphate, 0.5M […]. (incubation buffer), kept at room temperature; 0.05M MgCl2 kept at 4° C.; β-Nicotinamide adenine dinucleotide phosphate, tetrasodium salt, reduced form (NADPH), 0.02M solution in water (˜16.6 mg/mL) from Sigma Lot # 79H7044 prepared on day of use. 1 mM of ranolazine or Compounds 7, 9, and 10-13 in ACN further diluted to obtain 100 μM in 10% ACN; Human S9 stock: 20 mg/mL from Gentest Lot 3.
Incubation mixtures were prepared as follows:
Combine all components with incubation buffer and re-pipette 200 μL/tube+25 μL of the compound being tested along with 25 μL of S-9.
After 5 min of pre-incubation at 37° C., at 0 and 30 min after starting the reaction, a 50 μl aliquot of the incubation mixture was removed and added to 100 μL of 9:1 acetonitrile:methanol containing the internal standard.
The mixture was centrifuged and a 100 μL aliquot of the supernatant was diluted in 1 mL of solvent C (0.1% Formic Acid in water). Then samples were analyzed for change between the ratio of compound to internal standard at time zero and 30 minutes by LC/MS (injected 10 μL).
Samples were analyzed for the starting compounds and potential metabolite/s by LC/MS using an internal standard on a Micromass platform mass spec with a Keystone Inc. BDS ODS-C18 column with a flow rate of 0.25 ml/min.

[2] = tested on: mitochondrial fatty acid oxidation using palmitoyl CoA as substrate; assay: Palmitoyl CoA oxidation in isolated rat heart mitochondria; format: biochemical; conditions: 15 min at 30° C.
Description: (§1) Rat heart mitochodria were isolated by the method of Nedergard and Cannon (Methods in Enzymol. 55, 3, 1979).
(§2) Palmitoyl CoA oxidation—The Palmitoyl CoA oxidation was carried out in a total volume of 100 microliters containing the following agents: 110 mM KCl, 33 mM Tris buffer at pH 8, 2 mM KPi, 2 mM MgCl2, 0.1 mM EDTA, 14.7 microM defatted BSA, 0.5 mM malic acid, 13 mM carnitine, 1 mM ADP, 52 micrograms of mitochondrial protein, and 16 microM 1-C14 palmitoyl CoA (Sp. Activity 60 mCi/mmole; 20 microCi/ml, using 5 microliters per assay). The compounds of this invention were added in a DMSO solution at the following concentrations: 100 microM, 30 microM, and 3 microM. In each assay, a DMSO control was used. After 15 min at 30° C., the enzymatic reaction was centrifuged (20,000 g for 1 min), and 70 microliters of the supernatant was added to an activated reverse phase silicic acid column (approximately 0.5 ml of silicic acid). The column was eluted with 2 ml of water, and 0.5 ml of the eluent was used for scintillation counting to determine the amount of C^14 trapped as C^14 bicarbonate ion. The data are presented as % activity of control.

[3] = tested on: mitochondrial fatty acid oxidation using palmitoyl carnitine as substrate; assay: Palmitoyl carnitine oxidation in isolated rat heart mitochondria; format: biochemical; conditions: 15 min at 30° C.
Description: as §1
as §2, with “Carnitine Oxidation—The” for “CoA oxidation—The”, “carnitine” for “CoA”, “0.1 mg/ml of” for “14.7 microM”, “3” for “13 mM carnitine, 1”, “43” for “16”

Liver S-9 stability factor [1] | Structure (SMILES) | Palmitoyl CoA oxidation activity, % of DMSO control ([2]; 100 μM compound) [%] | Palmitoyl carnitine oxidation remaining, % activity of DMSO control ([3]; 100 μM compound) [%] | also measured
1.0 | COc1ccccc1OCC(O)CN1CCN(CC(=O)Nc2c(C)cccc2C)CC1 (racemic) [Ranolazine, (±)-N-(2,6-dimethylphenyl)-4-[2-hydroxy-3-(2-methoxyphenoxy)-propyl]-1-piperazineacetamide, reference compound] | 75 | 63 | percentage of parent drug remaining at the 30 minute time point ([1]; human liver S-9, 30 minutes at 37 C, 10 μM, average of five experiments): 57%; Palmitoyl CoA oxidation activity, % of DMSO control ([2]; 30 μM compound): 90%; Palmitoyl carnitine oxidation remaining, % activity of DMSO control ([3]; 30 μM compound): 98%
1.51 | Cc1cccc(C)c1NC(=O)CN(C)CCN(C)CC(O)COc1ccc2c(c1)OCO2 (stereo not shown) [Compound 7, 2-({2-[(3-(2H-benzo[d]1,3-dioxolen-5-yloxy)-2-hydroxypropyl)methylamino]ethyl}methylamino)-N-(2,6-dimethylphenyl)acetamide] | – | – | –
– | COc1ccccc1OCC(O)CN(C)CCN(C)CC(=O)Nc1c(C)cccc1C (stereo not shown) [Compound 9] | 8.83 | – | –
– | Cc1cccc(C)c1NC(=O)CN(C)CCN(C)CC(O)COc1c(Cl)cccc1Cl (stereo not shown) [Compound 10] | 23 | – | –
– | COc1ccccc1CC(O)CN(C)CCN(C)CC(=O)Nc1c(C)cccc1C (stereo not shown) [Compound 11] | 8 | – | –
– | Cc1cccc(C)c1NC(=O)CN(C)CCN(C)CC(O)Cc1cccc2ccccc12 (stereo not shown) [Compound 12] | 26.5 | – | –
– | CCN(CCN(CC)CC(O)COc1ccccc1OC)CC(=O)Nc1c(C)cccc1C (stereo not shown) [Compound 13] | 67.8 | – | –
– | CCN(CCN(CC)CC(O)COc1c(Cl)cccc1Cl)CC(=O)Nc1c(C)cccc1C (stereo not shown) [Compound 14] | 97.1 | – | –
0.01 | CCN(CCN(CC)CC(O)c1ccccc1Cl)CC(=O)Nc1c(C)cccc1C (stereo not shown) [Compound 17] | 34.3 | – | –
– | CCN(CCN(CC)CC(O)c1ccccc1F)CC(=O)Nc1c(C)cccc1C (stereo not shown) [Compound 18] | 54.8 | – | –
– | CCN(CCN(CC)CC(O)Cc1ccc2c(c1)OCO2)CC(=O)Nc1c(C)cccc1C (stereo not shown) [Compound 19] | 26 | 97.1 | –
1.59 | Cc1cccc(C)c1NC(=O)CN(C)CCN(C)CC(O)Cc1ccc2c(c1)OCO2 (stereo not shown) [Compound 20] | – | 98.7 | –
0.08 | Cc1cccc(C)c1NC(=O)CN(C)CCCN(C)CC(O)Cc1ccccc1 (stereo not shown) [Compound 21] | – | 4.9 | –
1.58 | Cc1cccc(C)c1NC(=O)CN(C)CCCN(C)CC(O)Cc1ccc2c(c1)OCO2 (stereo not shown) [Compound 22] | 12.5 | 97 | –
